In ChEMBL document CHEMBL5579878, “Allosteric Activation of Protein Phosphatase 5 with Small Molecules” (J Med Chem, 2024):
Positions count from the first letter of the chain named. The source made the active and inactive calls. The rule behind the calls is not given here.

Experiments:
HCT-116 [1] = test: Downregulation of AT13387-induced HSP27 expression in PP5 Knockout human HCT-116 cells at 50 uM incubated for 24 hrs by Western blot analysis; type: functional, cell-based
[2] = biological target: Serine/threonine-protein phosphatase 5 (Homo sapiens, UniProt P53041, K430A); test: Binding affinity to PP5 K430A mutant (unknown origin) assessed as dissociation constant by ITC analysis
Sequence of Serine/threonine-protein phosphatase 5 (Homo sapiens, UniProt P53041, K430A) (P53041 2-499 K430A limits assumed): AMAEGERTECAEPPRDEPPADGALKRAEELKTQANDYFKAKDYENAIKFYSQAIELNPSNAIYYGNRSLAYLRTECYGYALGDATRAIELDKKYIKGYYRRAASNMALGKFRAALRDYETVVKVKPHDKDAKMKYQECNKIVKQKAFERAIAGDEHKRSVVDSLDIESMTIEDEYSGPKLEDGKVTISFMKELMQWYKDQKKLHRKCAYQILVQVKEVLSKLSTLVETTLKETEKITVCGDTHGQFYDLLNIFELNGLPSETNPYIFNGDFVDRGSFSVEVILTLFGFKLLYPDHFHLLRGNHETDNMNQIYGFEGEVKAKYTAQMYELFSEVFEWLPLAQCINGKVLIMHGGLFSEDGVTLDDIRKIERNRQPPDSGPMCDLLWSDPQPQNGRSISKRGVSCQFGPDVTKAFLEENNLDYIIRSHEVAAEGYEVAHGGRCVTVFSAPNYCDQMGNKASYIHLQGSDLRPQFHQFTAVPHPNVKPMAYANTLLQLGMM

HCT-116 [3] = test: Downregulation of AT13387-induced HSP40 expression in human HCT-116 cells at 50 uM incubated for 24 hrs by Western blot analysis; type: functional, cell-based
HCT-116 [4] = test: Downregulation of AT13387-induced HSP70 expression in PP5 Knockout human HCT-116 cells at 50 uM incubated for 24 hrs by Western blot analysis; type: functional, cell-based
[5] = biological target: T1, Serine/threonine-protein phosphatase 5 (Homo sapiens, UniProt P53041); test: Binding affinity to His-tagged human PP5 phosphatase domain extracted from Escherichia coli BL21 assessed as dissociation constant by ITC analysis
T1 sequence (P53041 whole entry): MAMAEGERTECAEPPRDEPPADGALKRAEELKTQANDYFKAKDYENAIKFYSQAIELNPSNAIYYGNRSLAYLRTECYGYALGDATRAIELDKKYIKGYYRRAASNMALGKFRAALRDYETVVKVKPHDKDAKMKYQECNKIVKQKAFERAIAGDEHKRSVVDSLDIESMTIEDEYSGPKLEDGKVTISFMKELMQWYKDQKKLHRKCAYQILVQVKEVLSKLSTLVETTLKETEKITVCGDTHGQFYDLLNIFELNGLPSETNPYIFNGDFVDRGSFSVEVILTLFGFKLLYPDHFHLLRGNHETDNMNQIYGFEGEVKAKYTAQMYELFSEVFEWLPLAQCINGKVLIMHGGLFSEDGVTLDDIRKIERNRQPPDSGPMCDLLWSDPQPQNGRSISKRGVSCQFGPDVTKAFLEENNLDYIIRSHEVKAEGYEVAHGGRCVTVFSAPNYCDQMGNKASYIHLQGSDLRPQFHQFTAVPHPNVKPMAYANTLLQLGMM

HCT-116 [6] = test: Antitumor activity against human HCT-116 cells xenografted in BALB/c nude mouse assessed as decrease in AT13387-induced HSP27 protein expression in tumor at 30 to 60 mg/kg, ip administered every other day for 14 days by Western blot analysis; type: functional, organism-based; conditions: dose 30-60 mg/kg, time 14.0 day
HCT-116 [7] = test: Downregulation of AT13387-induced HSP40 expression in PP5 Knockout human HCT-116 cells at 50 uM incubated for 24 hrs by Western blot analysis; type: functional, cell-based
HCT-116 [8] = test: Effect on HSP40 expression level in human HCT-116 cells at 1 to 100 uM incubated for 24 hrs by Western blot analysis; type: functional, cell-based; conditions: dose 1-100 µM
[9] = biological target: Dual specificity protein phosphatase 3 (Homo sapiens) (UniProt P51452); test: Inhibition of DUSP3 (unknown origin) using DiFMUP as substrate at 0.01 to 1000 uM; conditions: dose 0.01-1000 µM
Sequence of Dual specificity protein phosphatase 3 (Homo sapiens) (P51452 whole entry, looked up): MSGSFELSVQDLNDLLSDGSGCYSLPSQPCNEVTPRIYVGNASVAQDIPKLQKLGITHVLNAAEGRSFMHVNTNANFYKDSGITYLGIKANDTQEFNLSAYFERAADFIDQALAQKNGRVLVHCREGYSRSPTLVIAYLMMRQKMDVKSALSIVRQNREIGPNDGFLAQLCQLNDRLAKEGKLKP

SW-620 = test: Antiproliferative activity against human SW620 cells assessed as inhibition of cell proliferation at 1 to 100 uM incubated for 72 hrs by CCK8 assay; type: functional, cell-based; conditions: dose 1-100 µM
[10] = biological target: T2, Hsp90 co-chaperone Cdc37 (Homo sapiens) (UniProt Q16543); test: Induction of CDC37 dephosphorylation at S13 residue in PP5-KO human HCT-116 cells upto 100 uM incubated for 24 hrs by Western blot analysis; type: cell-based
T2 sequence (whole entry): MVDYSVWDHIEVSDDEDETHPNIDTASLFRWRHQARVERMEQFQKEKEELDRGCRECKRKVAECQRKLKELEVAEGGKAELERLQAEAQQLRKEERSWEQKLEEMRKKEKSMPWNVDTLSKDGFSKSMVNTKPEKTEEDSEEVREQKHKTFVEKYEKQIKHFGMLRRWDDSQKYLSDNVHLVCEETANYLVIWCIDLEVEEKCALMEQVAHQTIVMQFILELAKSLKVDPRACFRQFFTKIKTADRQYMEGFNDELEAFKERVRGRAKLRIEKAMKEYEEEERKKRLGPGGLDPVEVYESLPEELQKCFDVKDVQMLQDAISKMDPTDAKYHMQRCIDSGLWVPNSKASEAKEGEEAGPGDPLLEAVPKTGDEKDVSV

[11] = system: T3, Serine/threonine-protein phosphatase 5 (Homo sapiens), P53041 [V429A]; test: Binding affinity to PP5 V429A mutant (unknown origin) by ITC analysis
T3 sequence (whole entry): T1 sequence (P53041 whole entry) with V429A

HCT-116 [12] = test: Antitumor activity against human HCT-116 cells xenografted in BALB/c nude mouse assessed as decrease in AT13387-induced HSP40 protein expression in tumor at 30 to 60 mg/kg, ip administered every other day for 14 days by Western blot analysis; type: functional, organism-based; conditions: dose 30-60 mg/kg, time 14.0 day
[13] = biological target: T4, Serine/threonine-protein phosphatase 5 (Homo sapiens) (UniProt P53041); test: Binding affinity to human PP5 extracted from Escherichia coli BL21 using CDC37 as substrate assessed as increase in dephosphorylation of p-CDC37 at S13 residue at 25 uM by Western blot analysis; conditions: filed as activator, time 0.5-2 hrs, TDE = time-dependent effect
T4 sequence (whole entry): T1 sequence (P53041 whole entry)

HCT-116 [14] = test: Enhancement of HSP90 inhibitor AT13387-induced antiproliferative activity against human HCT-116 cells assessed as HSP90 inhibitor AT13387 IC50 at 50 uM incubated for 72 hrs by CCK8 assay (reference value: 78.49 nM); type: functional, cell-based; conditions: HCT-116, 72 h
[15] = biological target: T5, Low molecular weight phosphotyrosine protein phosphatase (Homo sapiens) (UniProt P24666); test: Inhibition of LMPTP-A (unknown origin) using DiFMUP as substrate at 0.01 to 1000 uM; conditions: dose 0.01-1000 µM
T5 sequence (whole entry): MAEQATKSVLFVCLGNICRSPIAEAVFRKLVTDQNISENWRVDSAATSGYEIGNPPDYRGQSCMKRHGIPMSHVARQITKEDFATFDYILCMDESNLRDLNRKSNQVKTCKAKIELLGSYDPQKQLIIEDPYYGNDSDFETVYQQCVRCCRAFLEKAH

Kd [2]: 37.2 µM
Kd [5]: 0.811 µM
inhibition [9]: inactive
Activity [10]: inactive
Activity [11]: inactive
Activity [13]: Tde
IC50 (HCT-116 [14]): 0.0408 µM
inhibition [15]: inactive
SMILES: N=c1oc2cc(F)cc(F)c2cc1C(N)=S
Activity (HCT-116 [1]): inactive
Activity (HCT-116 [3]): Active
Activity (HCT-116 [4]): inactive
Activity (HCT-116 [6]): Active
Activity (HCT-116 [7]): inactive
Activity (HCT-116 [8]): inactive
Activity (SW-620): inactive
Activity (HCT-116 [12]): Active
